According to publication PMC9501983, “Transport and Permeation Properties of Dapivirine: Understanding Potential Drug-Drug Interactions” (Pharmaceutics, 2022):

Experiments:
BCRP = biological target: T1, BCRP (Homo sapiens, UniProt Q9UNQ0); assay: Bi-directional transport across MDCKII BCRP and WT/EV cell monolayers
T1 sequence (Q9UNQ0 1-655): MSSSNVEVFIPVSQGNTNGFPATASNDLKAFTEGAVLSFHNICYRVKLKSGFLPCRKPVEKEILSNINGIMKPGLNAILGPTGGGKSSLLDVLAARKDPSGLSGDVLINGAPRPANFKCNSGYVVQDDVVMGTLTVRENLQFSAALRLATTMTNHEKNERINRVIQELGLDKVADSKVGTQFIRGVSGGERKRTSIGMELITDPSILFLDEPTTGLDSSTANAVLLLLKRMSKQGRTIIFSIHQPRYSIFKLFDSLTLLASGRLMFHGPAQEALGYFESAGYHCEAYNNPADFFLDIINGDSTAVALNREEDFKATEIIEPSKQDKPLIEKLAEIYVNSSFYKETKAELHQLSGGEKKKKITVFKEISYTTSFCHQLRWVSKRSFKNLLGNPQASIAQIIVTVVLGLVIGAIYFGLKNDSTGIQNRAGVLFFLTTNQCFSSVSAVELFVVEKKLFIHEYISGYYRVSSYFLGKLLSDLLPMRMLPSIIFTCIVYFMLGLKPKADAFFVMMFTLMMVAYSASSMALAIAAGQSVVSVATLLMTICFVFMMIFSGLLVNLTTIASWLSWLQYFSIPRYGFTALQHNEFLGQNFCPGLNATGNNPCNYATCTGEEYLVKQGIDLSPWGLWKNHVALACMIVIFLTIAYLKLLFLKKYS

MRP1 = system: MRP1; set-up: method as in PMID 26102284; settings: DPV at 10 μM; cited from earlier work
MRP4 = biological target: T2, MRP4 (Homo sapiens, UniProt O15439); assay: ATPase assay (ADP-Glo Max) in MRP4 vesicles; type: biochemical; set-up: purchased Thermo Fisher Scientific; settings: DPV 20 μM; prostaglandin E2 20 μM; 60 min, 37 °C
T2 sequence (O15439 1-1325): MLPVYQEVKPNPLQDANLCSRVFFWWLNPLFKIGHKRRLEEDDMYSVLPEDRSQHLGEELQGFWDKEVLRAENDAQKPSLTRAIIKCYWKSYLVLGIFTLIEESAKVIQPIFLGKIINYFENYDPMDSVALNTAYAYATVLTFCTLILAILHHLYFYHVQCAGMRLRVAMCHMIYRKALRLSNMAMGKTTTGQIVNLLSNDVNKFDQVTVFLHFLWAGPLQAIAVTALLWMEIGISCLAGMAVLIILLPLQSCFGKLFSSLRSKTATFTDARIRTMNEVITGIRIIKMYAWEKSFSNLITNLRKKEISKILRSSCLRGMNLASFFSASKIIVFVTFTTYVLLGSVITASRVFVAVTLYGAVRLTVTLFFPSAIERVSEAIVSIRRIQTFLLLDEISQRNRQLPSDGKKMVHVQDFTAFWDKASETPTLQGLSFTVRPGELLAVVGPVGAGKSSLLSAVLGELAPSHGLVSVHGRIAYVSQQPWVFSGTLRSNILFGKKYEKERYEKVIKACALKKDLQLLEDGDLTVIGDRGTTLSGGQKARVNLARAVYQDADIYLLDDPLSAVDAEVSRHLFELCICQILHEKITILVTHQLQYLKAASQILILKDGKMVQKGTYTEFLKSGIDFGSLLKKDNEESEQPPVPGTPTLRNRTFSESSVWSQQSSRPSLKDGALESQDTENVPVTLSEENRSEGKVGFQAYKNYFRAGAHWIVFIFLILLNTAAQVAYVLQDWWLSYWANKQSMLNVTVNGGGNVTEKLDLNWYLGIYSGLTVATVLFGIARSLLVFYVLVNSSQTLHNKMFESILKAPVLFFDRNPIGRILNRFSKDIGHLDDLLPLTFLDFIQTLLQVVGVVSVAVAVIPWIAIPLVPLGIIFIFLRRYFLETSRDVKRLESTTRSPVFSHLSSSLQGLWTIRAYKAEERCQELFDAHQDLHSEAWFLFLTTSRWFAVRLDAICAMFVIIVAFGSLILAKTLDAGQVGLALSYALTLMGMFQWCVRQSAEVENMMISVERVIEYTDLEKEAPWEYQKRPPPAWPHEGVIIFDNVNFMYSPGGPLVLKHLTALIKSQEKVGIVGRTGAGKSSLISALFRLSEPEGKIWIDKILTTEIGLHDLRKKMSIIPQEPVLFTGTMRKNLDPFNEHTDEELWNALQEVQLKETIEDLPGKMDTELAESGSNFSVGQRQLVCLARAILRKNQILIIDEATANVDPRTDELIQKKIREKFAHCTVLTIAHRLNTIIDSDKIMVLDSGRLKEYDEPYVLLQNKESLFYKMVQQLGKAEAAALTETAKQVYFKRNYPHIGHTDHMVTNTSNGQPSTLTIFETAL
Method: ATPase activity of MRP1 or MRP4 in transporter overexpressing membrane vesicles (10 μg of protein per assay) was measured by the ADP-Glo Max assay according to manufacturer’s protocol. The assay quantified the amount of ADP produced by the membrane vesicles over 60 min at 37 °C in the ATPase assay buffer (50 mM Tris-MOPS, 50 mM potassium chloride, 5 mM sodium azide, 2 mM dithiothreitol, 2 mM glutathione, 0.1 mM EGTA-Tris, and 10 mM magnesium chloride at pH 7.0). DPV was tested at 20 μM and compared to the baseline ATPase activity. A known MRP1 substrate, N-ethylmaleimide-S-glutathione (prepared by mixing N-ethylmaleimide and glutathione at a 1:1 molar ratio), at 10 mM and a known MRP4 substrate, prostaglandin E2, at 20 μM were used as positive controls. The reaction was initiated with 5 mM ATP and quenched with the ADP-Glo detection buffer. The amount of ADP produced was quantified by recording luminescence on a SpectraMax M3 plate reader (Molecular Devices, San Jose, CA, USA).

DPV ER in MDCKII BCRP cells with Ko143, reduced to % of ER without (BCRP; 0.5 μM DPV, 1 μM Ko143): 85% | Impact on Papp of nitrofurantoin across MDCKII BCRP monolayers (either direction) (BCRP; 5 μM DPV, 1 μM nitrofurantoin): no significant impact | Substrate status for BCRP (BCRP; cellular system): not a substrate | efflux ratio at 90 min, 0.5 μM (BCRP; dog, pH 7.4): 1.33 | ATPase activity in MRP4 vesicles, % of baseline (MRP4): no significant stimulation
Compound: Cc1cc(C)c(Nc2ccnc(Nc3ccc(C#N)cc3)n2)c(C)c1 [DPV, dapivirine]
Effect on MRP1 expression level (MRP1): upregulated
